Experimental data: US9221791B2, “Metalloenzyme inhibitor compounds” (Viamet Pharmaceuticals, Inc., priority 2011, dated 2015)
Values after ≈ are worked out from the molar mass of the structure shown.

How the values were obtained:
[1] = system: Septoria tritici (ATCC 26517); experiment: Minimum Inhibitory Concentration (MIC) (Septoria tritici), CLSI-based microdilution; assay type: cell-based; conditions: S. tritici ATCC 26517, 22° C. for seven days, 50% reduction in growth; for MIC: Zymoseptoria tritici, ATCC26517, 168 h, read-out: Septoria Rating (MIC)
Protocol: C. Minimum Inhibitory Concentration (MIC) (Septoria tritici)
Compounds of the present disclosure were assessed for their ability to inhibit the growth of a common strain of the fungal plant pathogen Septoria tritici (ATCC 26517) using a procedure based on a Clinical and Laboratory Standards Institute (CLSI) microdilution assay protocol for filamentous fungi.
Stock solutions of the test compounds and standards were prepared in DMSO at 6400 μg/mL. Each stock solution was used to prepare a 2-fold dilution series ranging from 16 to 0.016 μg/mL (total of 11 compound concentrations) in RPMI-1640 (Roswell Park Memorial Institute) medium containing 3-(N-morpholino)propanesulfonic acid (MOPS) buffer and 2% DMSO. A 100 μL aliquot of the dilutions was added to columns 1 (16 μg/mL compound) through 11 (0.016 μg/mL compound) of a 96-well microtiter plate. This format was replicated in a second row of the microtiter plate. Thus, each microtiter plate could include 11 concentrations of four test or control compounds replicated twice. A 100 μL aliquot of RPMI-1640/MOPS/2% DMSO medium was added to column 12 (no compound control) of the microtiter plate.
A fresh culture of S. tritici was used to prepare a solution of approximately 5×10^4 colony-forming units per milliliter (cfu/mL) in RPMI/MOPS medium without DMSO. A 100 µL aliquot of this solution was added to all 96 wells in the microtiter plate. […] The assay plates were incubated at 22° C. for seven days in the dark without shaking.
In each case of Table 3 the Septoria rating scale is as follows: […]

[2] = system: Puccinia recondita tritici = Puccinia triticina; experiment: Fungicidal activity vs. leaf rust on wheat plants; assay type: in vivo; conditions: wheat (variety Yuma) sprayed at 50 ppm, inoculated on the following day, evaluated 7-9 days later; read-out: Puccinia Rating (% Disease Control @ 50 ppm)
Description: D. Evaluation of Fungicidal Activity Vs. Leaf Rust (Causal Agent Puccinia recondita tritici=Puccinia triticina; Bayer Code PUCCRT). […] Each pot contained 3-8 seedlings. These plants were sprayed until wet with the formulated test compounds. The compounds were formulated at 50 ppm in 10 vol. % acetone plus 90 vol. % Triton X water (deionized water 99.99 wt %+0.01 wt % Triton X100), giving a “formulated test compound.” Formulated test compounds were applied to plants using a turn table sprayer fitted with two opposing air atomization nozzles which delivered approximately 1500 L/ha of spray volume. On the following day, the leaves were inoculated with an aqueous spore suspension of Puccinia recondita tritici and the plants were kept in high humidity overnight to permit spores to germinate and infect the leaf. The plants were then transferred to a greenhouse until disease developed on untreated control plants. Disease severity was evaluated 7-9 days later, depending on the speed of disease development. In each case of Table 3, the Puccinia rating scale is as follows: […]

SMILES	MIC [1] [µg/mL]	Septoria Rating (MIC) [1]	pest or weed control at 50 ppm [2] [%]
OC(Cn1cnnn1)(c1ccc(F)cc1F)C(F)(F)c1ccccn1 (stereo not drawn) [2(−), 2-(2,4-Difluorophenyl)-1,1-difluoro-1-(pyridin-2-yl)-3-(1H-tetrazol-1-yl)propan-2-ol]	≤ 0.5	–	80 to 100
OC(Cn1cnnn1)(c1ccc(F)cc1F)C(F)(F)c1ccc(Br)cn1 (stereo not shown) [Compound 1, 1-(5-Bromopyridin-2-yl)-2-(2,4-difluorophenyl)-1,1-difluoro-3-(1H-tetrazol-1-yl)propan-2-ol]	≤ 0.5	–	80 to 100
OC(Cn1cnnn1)(c1ccc(F)cc1F)C(F)(F)c1ccc(F)cn1 (stereo not shown) [Compound 10, 2-(2,4-Difluorophenyl)-1,1-difluoro-1-(5-fluoropyridin-2-yl)-3-(1H-tetrazol-1-yl)propan-2-ol]	1.5 (≈ 4.04 µM)	–	80 to 100
OC(Cn1cnnn1)(c1ccc(F)cc1F)C(F)(F)c1ccc(CC(F)(F)F)cn1 (stereo not shown) [Compound 17, 2-(2,4-Difluorophenyl)-1,1-difluoro-3-(1H-tetrazol-1-yl)-1-(5-(2,2,2-trifluoroethyl)pyridin-2-yl)propan-2-ol]	≤ 0.5	–	80 to 100
OC(Cn1cnnn1)(c1ccc(F)cc1F)C(F)(F)c1ccc(C2CC2)cn1 (stereo not shown) [Compound 18, 1-(5-Cyclopropylpyridin-2-yl)-2-(2,4-difluorophenyl)-1,1-difluoro-3-(1H-tetrazol-1-yl)propan-2-ol]	≤ 0.5	–	80 to 100
OC(Cn1cnnn1)(c1ccc(Cl)cc1F)C(F)(F)c1ccc(Br)cn1 (stereo not shown) [Compound 22, 1-(5-Bromopyridin-2-yl)-2-(4-chloro-2-fluorophenyl)-1,1-difluoro-3-(1H-tetrazol-1-yl)propan-2-ol]	≤ 0.5	–	80 to 100
Cc1ccc(C(F)(F)C(O)(Cn2cnnn2)c2ccc(F)cc2F)nc1 (stereo not shown) [Compound 25, 2-(2,4-Difluorophenyl)-1,1-difluoro-1-(5-methylpyridin-2-yl)-3-(1H-tetrazol-1-yl)propan-2-ol]	1.5 (≈ 4.08 µM)	–	80 to 100
OC(Cn1cnnn1)(c1ccc(Cl)cc1F)C(F)(F)c1ccc(Cl)cn1 (stereo not shown) [Compound 26, 2-(4-Chloro-2-fluorophenyl)-1-(5-chloropyridin-2-yl)-1,1-difluoro-3-(1H-tetrazol-1-yl)propan-2-ol]	≤ 0.5	–	80 to 100
OC(Cn1cnnn1)(c1ccc(Cl)cc1F)C(F)(F)c1ccc(F)cn1 (stereo not shown) [Compound 27, 2-(4-Chloro-2-fluorophenyl)-1,1-difluoro-1-(5-fluoropyridin-2-yl)-3-(1H-tetrazol-1-yl)propan-2-ol]	1.5 (≈ 3.87 µM)	–	80 to 100
OC(Cc1cc[nH]n1)(c1ccc(F)cc1F)C(F)(F)c1ccc(Br)cn1 (stereo not shown) [Compound 62, 1-(5-Bromopyridin-2-yl)-2-(2,4-difluorophenyl)-1,1-difluoro-3-(1H-pyrazol-3-yl)propan-2-ol]	≤ 0.5	–	–
OC(Cc1cc[nH]n1)(c1ccc(F)cc1F)C(F)(F)c1ccc(-n2nccn2)cn1 (stereo not shown) [Compound 63, 1-(5-(2H-1,2,3-Triazol-2-yl)pyridin-2-yl)-2-(2,4-difluorophenyl)-1,1-difluoro-3-(1H-pyrazol-3-yl)propan-2-ol]	1.5 (≈ 3.59 µM)	–	–
OC(Cc1cc[nH]n1)(c1ccc(F)cc1F)C(F)(F)c1ccc(-n2ccnn2)cn1 (stereo not shown) [Compound 64, 1-(5-(1H-1,2,3-Triazol-1-yl)pyridin-2-yl)-2-(2,4-difluorophenyl)-1,1-difluoro-3-(1H-pyrazol-3-yl)propan-2-ol]	> 4	–	–
OC(Cc1cn[nH]c1)(c1ccc(F)cc1F)C(F)(F)c1ccccn1 (stereo not shown) [Compound 65, 2-(2,4-Difluorophenyl)-1,1-difluoro-3-(1H-pyrazol-4-yl)-1-(pyridin-2-yl)propan-2-ol]	1.5 to 4 (≈ 4.27 to 11.4 µM)	–	–
O=C(c1ccc(C(F)(F)C(O)(Cn2cnnn2)c2ccc(F)cc2F)nc1)c1ccc(F)c(F)c1 (stereo not shown) [Compound 70, (3,4-Difluorophenyl)(6-(2-(2,4-difluorophenyl)-1,1-difluoro-2-hydroxy-3-(1H-tetrazol-1-yl)propyl)pyridin-3-yl)methanone]	≤ 0.5	–	–
OC(c1ccc(C(F)(F)F)cc1)c1ccc(C(F)(F)C(O)(Cn2cnnn2)c2ccc(F)cc2F)nc1 (stereo not shown) [Compound 72, 2-(2,4-Difluorophenyl)-1,1-difluoro-1-(5-(hydroxy(4-(trifluoromethyl)phenyl)methyl)pyridin-2-yl)-3-(1H-tetrazol-1-yl)propan-2-ol]	1.5 to 4 (≈ 2.84 to 7.58 µM)	–	–
OC(Cn1cnnn1)(c1ccc(F)cc1F)C(F)(F)c1ccc(C(F)(F)c2ccc(Cl)cc2)cn1 (stereo not shown) [Compound 74, 1-(5-((4-Chlorophenyl)difluoromethyl)pyridin-2-yl)-2-(2,4-difluorophenyl)-1,1-difluoro-3-(1H-tetrazol-1-yl)propan-2-ol]	1.5 to 4 (≈ 2.92 to 7.78 µM)	–	–

Continued, in another order:

MIC [1] [µg/mL]	Septoria Rating (MIC) [1]	SMILES	pest or weed control at 50 ppm [2] [%]
≤ 0.5	–	OC(Cn1cnnn1)(c1ccc(F)cc1F)C(F)(F)c1ccc(-c2ccc(Br)s2)cn1 (stereo not shown) [Compound 78, 1-(5-(5-Bromothiophen-2-yl)pyridin-2-yl)-2-(2,4-difluorophenyl)-1,1-difluoro-3-(1H-tetrazol-1-yl)propan-2-ol]	–
> 4	–	N#Cc1ccc(OCc2ccc(C(F)(F)C(O)(Cn3ncnn3)c3ccc(F)cc3F)nc2)cc1 (stereo not shown) [Compound 80, 4-((6-(2-(2,4-Difluorophenyl)-1,1-difluoro-2-hydroxy-3-(2H-tetrazol-2-yl)propyl)pyridin-3-yl)methoxy)benzonitrile]	–
1.5 to 4 (≈ 3.42 to 9.12 µM)	–	OC(Cn1cnnn1)(c1ccc(F)cc1F)C(F)(F)c1ccc(N2CCOCC2)cn1 (stereo not shown) [Compound 81, 2-(2,4-Difluorophenyl)-1,1-difluoro-1-(5-morpholinopyridin-2-yl)-3-(1H-tetrazol-1-yl)propan-2-ol]	–
1.5 to 4 (≈ 3.44 to 9.17 µM)	–	OC(Cn1cnnn1)(c1ccc(F)cc1F)C(F)(F)c1ccc(N2CCCCC2)cn1 (stereo not shown) [Compound 82, 2-(2,4-Difluorophenyl)-1,1-difluoro-1-(5-(piperidin-1-yl)pyridin-2-yl)-3-(1H-tetrazol-1-yl)propan-2-ol]	–
1.5 (≈ 3.5 µM)	–	CC(F)(c1ccc(Br)cn1)C(O)(Cn1cnnn1)c1ccc(F)cc1F (stereo not shown) [Compound 84, 3-(5-Bromopyridin-2-yl)-2-(2,4-difluorophenyl)-3-fluoro-1-(1H-tetrazol-1-yl)butan-2-ol]	–
–	C (>1.5-4)	CC(F)(c1ccc(Br)cn1)C(O)(Cn1cnnn1)c1ccc(F)cc1F (stereo not shown) [Compound 85, 3-(5-Bromopyridin-2-yl)-2-(2,4-difluorophenyl)-3-fluoro-1-(1H-tetrazol-1-yl)butan-2-ol]	–
≤ 0.5	–	OC(Cc1cncs1)(c1ccc(F)cc1F)C(F)(F)c1ccccn1 (stereo not shown) [Compound 86, 2-(2,4-Difluorophenyl)-1,1-difluoro-1-(pyridin-2-yl)-3-(thiazol-5-yl)propan-2-ol]	–
1.5 (≈ 3.53 µM)	–	CC(C)OCc1ccc(C(F)(F)C(O)(Cn2cnnn2)c2ccc(F)cc2F)nc1 (stereo not shown) [Compound 91, 2-(2,4-difluorophenyl)-1,1-difluoro-1-(5-(isopropoxymethyl)pyridin-2-yl)-3-(1H-tetrazol-1-yl)propan-2-ol]	–
≤ 0.5	–	OC(Cn1cnnn1)(c1ccc(F)cc1F)C(F)(F)c1ccc(Cc2ccc(Cl)nc2)cn1 (stereo not shown) [Compound 97, 1-(5-((6-chloropyridin-3-yl)methyl)pyridin-2-yl)-2-(2,4-difluorophenyl)-1,1-difluoro-3-(1H-tetrazol-1-yl)propan-2-ol]	–
